System: TNF-α-induced SIRS
Experiment: TNF-α-induced systemic inflammatory response syndrome (SIRS) in mice
Assay type: in vivo, mouse
Conditions: 5 mg/kg i.v. 15 min before mTNF-α 0.38 mg/kg; C57BL/6J mice
Excerpt: To confirm that the screening strategy leads to hits functionally active in vivo, we tested one of the hits for its ability to protect against RIPK-driven inflammation in TNF-α-induced systemic inflammatory response syndrome (SIRS). This mouse model of sterile sepsis[32] is dependent on RIPK1 and RIPK3 kinase activity and independent of apoptosis and inflammasome activity.
Representative blots and quantification of p-RIPK3/RIPK3 and p-MLKL/MLKL ratios in fold-change from control. Blots were normalized to endogenous β-actin.
Nec-1 was positive control for TNF-induced SIRS protection. Body temperature and mortality were monitored up to 96 h. Further details are provided as Supplementary Information.
Animal studies, injections and monitoring. Male C57BL/6J mice with 18-26 g (Charles River Laboratories International, Inc., Wilmington, MA, USA) were used at the age of 8-14 weeks. Five to seven animals were included in each experimental group. All animal experiments were carried out with the permission of local animal ethical committee in accordance with the EU Directive (2010/63/EU), Portuguese laws (DL113/2013, 2880/2015, 260/2016) and all relevant legislations. Animals received humane care in a temperature-controlled environment with a 12 h light-dark cycle and ad libitum access to pelleted chow and water, complying with the Institute’s guidelines, and as outlined in the “Guide for the Care and Use of Laboratory Animals” prepared by the National Academy of Sciences and published by the National Institutes of Health (NIH publication 86-23 revised 1985). […] Nec-1 was diluted as follows (v/v): 48% PBS 1X, 17% DMSO and 35% PEG 400. […] All injections were administered intravenously (i.v.) in 100 µL volume each. Body temperature was recorded on mice pre-shaven back using a non-contact infrared thermometer suitable for animal use (BIO-IRB153; BioSeb, Vitrolles, France). Body temperature and mortality were monitored up to 96 h. Animals were euthanized by inhalative induction of narcosis with isoflurane at the end of the experiment, or at humane endpoints according to the Clinical Severity Score ^59.

Row | SMILES | Survival in TNF-α-induced SIRS | TNF-α shock-associated hypothermia (body temperature)
1 | O=C(c1cnn(Cc2ccccc2)c1)N1CCOc2ccccc2C1 [SN-6109] | ~50% | gradually recovered their basal temperature in 48 h post-injection
2 | CN1C(=O)C(Cc2c[nH]c3ccccc23)NC1=S (stereo not shown) [Nec-1, necrostatin-1] | all survived | fully protected from hypothermia

Source: PMC7026080, “Phenotypic high-throughput screening platform identifies novel chemotypes for necroptosis inhibition” (Cell Death Discovery, 2020)
